Data from patent US20200278355A1, “CONJUGATED PROTEINS AND USES THEREOF” (THE SCRIPPS RESEARCH INSTITUTE, priority 2017, published 2020).

Target: T1, HA-NR0B1-WT binding to FLAG-SNW1 (Homo sapiens, UniProt P51843)
T1 construct: expressed in transfected cells; host or cells: HEK293T (pRK5-based plasmids)
Test: Modified in vitro binding assay: HA-NR0B1-WT from compound-treated HEK293T cells binding to FLAG-SNW1
Type: cell-based
Conditions: HEK293T cells expressing HA-NR0B1-WT treated with compound, lysate binding to FLAG-SNW1
Description: FIG. 5A-FIG. 5G show covalent ligand targeting C274 disrupts NR0B1 protein complexes. […] Percentage of NR0B1 bound to SNW1 was normalized to vehicle (DMSO). A hit compound BPK-26 is marked in red. […] HEK293T cells expressing the indicated proteins were treated with BPK-29 or vehicle (3 h) prior to treatment with BPK-29yne (30 min). Immunoprecipiated proteins were analyzed by in-gel fluorescence-scanning and immunoblotting. […] HEK293T cells expressing HA-NR0B1-WT or HA-NR0B1-C274V proteins were treated with DMSO or BPK-29, after which lysates were generated and evaluated for binding to FLAG-SNW1, as shown in (B).
FIG. 11A-FIG. 11F illustrate a covalent ligand targeting Cys274 disrupts NR0B1 protein complexes. […] See also FIG. 5C. […] Top: Structures of screening hit BPK-28 and synthesized derivatives. […] FLAG-immunoprecipitates were prepared from each lysate and subjected to proteolytic digestion, whereupon tryptic peptides harboring C274 were analyzed by LC-MS/MS. […] Immunoprecipitates were analyzed by in-gel fluorescence-scanning to assess BPK-29yne labeling or by immunoblot for FLAG-NR0B1. […] In a modified in vitro binding assay shown in FIG. 5B, HEK293T cells expressing HA-NR0B1-WT or an HA-NR0B1-C274V mutant were treated with DMSO or BPK-26 (20 μM, 3 h), after which lysates were and interaction with FLAG-SNW1 assessed. […]

T1 sequence (P51843 whole entry): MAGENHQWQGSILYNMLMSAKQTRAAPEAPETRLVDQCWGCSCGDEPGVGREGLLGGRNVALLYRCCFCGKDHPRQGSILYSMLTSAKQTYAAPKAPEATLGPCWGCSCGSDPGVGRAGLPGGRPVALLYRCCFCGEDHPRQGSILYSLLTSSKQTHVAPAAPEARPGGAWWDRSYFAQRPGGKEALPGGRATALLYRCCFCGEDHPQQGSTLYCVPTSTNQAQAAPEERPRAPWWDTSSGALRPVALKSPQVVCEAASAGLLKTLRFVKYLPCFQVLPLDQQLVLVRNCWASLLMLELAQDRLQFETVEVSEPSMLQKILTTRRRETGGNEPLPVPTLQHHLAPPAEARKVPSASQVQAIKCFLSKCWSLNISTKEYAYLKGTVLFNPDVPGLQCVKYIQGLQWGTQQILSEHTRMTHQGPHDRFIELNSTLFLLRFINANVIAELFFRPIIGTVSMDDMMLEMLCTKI

O=C(c1ccc(N2CCOCC2)cc1)N1CCCC(N(Cc2ccccc2)C(=O)CCl)CC1 (stereo not shown) [BPK-29, N-benzyl-2-chloro-N-(1-(4-morpholinobenzoyl)azepan-4-yl)acetamide]
disruption of NR0B1-WT protein interactions (binding to FLAG-SNW1): disrupts protein interactions for NR0B1-WT
